In series [1] the target is aPKCζ (Homo sapiens (Human), UniProt Q05513). The experiment in a line: ADP Quest assay, IC50 against aPKCζ. The following applies: 500 ng/ml aPKCζ, 10 μM CREBtide, 10 μM ATP.
Series [2] relates to HEK293pNF-kBluc cells. The experiment in a line: TNF-induced NF-kB activation assay (luciferase reporter). The following applies: 3 h pre-treatment, 5 ng/mL TNF for 5 h. Type of series: cell-based, human. The protocol: HEK293pNF-kBluc cells (Panomics, Fremont, Calif., USA) were cultured according to the manufacturer's protocol. Cells were seeded onto 96-well plates in phenol red-free DMEM containing high glucose (Sigma) for 24 hours prior to assay. Cells were exposed to a candidate compound for three hours. Following treatment, cells were stimulated with 5 ng/ml TNF (R&D Systems) for five hours. Cells were then lysed with Bright-Glo™ luciferase reagent (Promega, Madison, Wis., USA) and luminescent values were obtained using a GloMax® instrument using standard protocol for Bright-Glo™ luciferase reagent. Values were background corrected and normalized to TNF treatment alone and represented as % NF-kB activity.
Human embryonic kidney cells containing a luciferase reporter gene for NF-kB activation (HEK293pNF-kBluc) were treated with candidate compounds described herein for three hours. The cells were then stimulated with TNF for five hours and the inhibition of NF-kB was evaluated. After pre-treatment with 100 nM of aPKC inhibitor, NF-kB activity was reduced by as much as 80%. […] Other compounds tested inhibited TNF-induced NF-kB activity, but to a lesser degree.
In general terms: In a reporter assay the amount or activity of a reporter protein is the signal.

The subject of series [3] is BREC monolayer. The experiment in a line: TNF/VEGF permeability assay. Type of series: cell-based, bovine. The following applies: 30 min pretreatment, TNFα 1 hour then VEGF 30 min; for EC50: read-out: EC50 for inhibition of TNF/VEGF-induced endothelial permeability. The protocol:
BREC were plated onto 0.4 μm Transwell filters (Corning Costar, Acton, Mass., USA) and grown to confluence. Following 30 minutes of pretreatment with candidate compound, cells were subjected to 5 ng/ml TNFα (R&D Systems, Minneapolis, Minn., USA) for one hour, then 50 ng/ml VEGF (R&D Systems) for 30 minutes. Following treatments, 70 kDa Rhodamine β isothiocyanate-dextran (RITC-Dextran) was added to the apical chamber, and samples were collected from the basolateral chamber at 30 minute intervals for four hours. The rate of flux of the substrate, Po, was calculated over the four-hour time course from the following formula: Po=[FL/delta(t))VA]/(FAA)
where Po is in centimeters per second; FL is basolateral fluorescence; FA is apical fluorescence; delta(t) is change in time; A is the surface area of the filter (in square centimeters); and VA is the volume of the basolateral chamber (in cubic centimeters).

Series [4] relates to PKC isoforms. In words: PKC class specificity from radio-labeled kinase assay. Type of series: biochemical, human. The text has this: (§1) PKCldiMeO and PKCζl-diCl were screened against other PKC isoforms to determine class specificity using a radio-labeled kinase assay at the Kmapp for ATP. […] PKCζl-diCl was 5-10 fold more specific towards the atypical PKC isoforms compared to the classical PKCs (α, β) and over 10-20 fold more specific compared to the novel class (δ,ε).

Series [5] relates to cPKC / Erk phosphorylation in endothelial cells. In words: cPKC activity in cell culture (Erk phosphorylation, immunoblot). In kind it is cell-based. As for the experimental part: Cells were harvested in extraction buffer containing 100 mM NaCl, 1% Triton X-100, 0.5% Sodium Deoxycholate, 0.2% SDS, 2 mM EDTA, 10 mM HEPES (pH 7.5), 1 mM sodium orthovanadate, 10 mM sodium fluoride, 10 mM sodium pyrophosphate, 1 mM benzamadine, 1 complete protease inhibitor tablet, 10 μM LR-microcystin. Following protein extraction, Western blot utilizing the NuPAGE system (Invitrogen, Carlsbad, Calif., USA) was performed. Protein content was determined using DC protein assay (BioRad, Hercules, Calif., USA) and equal amounts of protein were loaded in 4-12% Bis-Tris gradient gels. Following electrophoresis and transferring to nitrocellulose, membranes were blocked in milk with 5% Tris-buffered saline with 0.1% Tween 20. Membranes were immunoblotted using anti-Flag (Cell Signaling, Danvers, Mass., USA), anti-HA (Cell Signaling, Danvers, Mass., USA), anti-phospho ERK1/2 (Cell Signaling, Danvers, Mass., USA), anti-total ERK1/2 (Cell Signaling, Danvers, Mass., USA), anti-phospho aPKC (Cell Signaling, Danvers, Mass., USA), total PKCζ (Santa Cruz, Santa Cruz, Calif., USA), and anti-actin (Millipore, Billerica, Mass., USA) antibodies. Primary antibodies were detected by horseradish peroxidase-conjugated anti-rabbit and chemiluminescence with ECL Advance (GE Healthcare, Piscataway, N.J., USA) or anti-mouse IgG alkaline phosphatase with ECF (GE Healthcare, Piscataway, N.J., USA).
On the technique in general: In western blotting, separated proteins are transferred to a membrane and probed.

In series [6] the test system is BREC. The experiment in a line: LIVE/Dead cell viability. To be noted: 24 and 48 hours; up to 300 nM.
Series [7] has as its system BREC monolayer. The experiment in a line: VEGF-induced retinal endothelial permeability assay (70 kDa RITC-Dextran). Type of series: cell-based, bovine. To be noted: pretreatment 30 min, 30 or 100 nM PKCζl-diCl, 30 or 300 nM PKCl-diMeO; 50 ng/ml VEGF. As for the experimental part: (§2) Primary bovine retinal endothelial cells (BREC) were isolated from fresh bovine eye tissue. Human retinal endothelial cells (HREC) were from Cell Systems (Krikland, Wash., USA). Cells were grown in MCDB-131 complete media (Sigma-Aldrich, Mo., USA) containing 10% fetal bovine serum, 10 ng/ml epidermal growth factor, 200 μg/ml Endogro (Vec Technologies, Rensselaer, N.Y., USA), 90 μg/ml heparin, antibiotics and antimycotics. For experimentation, cells were grown to confluence and serum starved for 24 hours with 100 nM hydrocortisone and treated with VEGF at 50 ng/ml where indicated. All experiments were performed with cells at passage 5-8.
(§3) RECs were plated onto 0.4 μm Transwell filters (Corning Costar, Acton, Mass., USA) and grown to confluence. Following treatments, 70 kDa rhodamine β isothiocyanate-dextran (RITC-Dextran) was added to the apical chamber and samples were collected from the basolateral chamber at 30 minute intervals for 4 hours. The rate of flux of the substrate, Po, was calculated over the 4 hour time course from the following formula. Po=[FL/Δt)VA]/(FAA) where Po is in centimeters per second; FL is basolateral fluorescence; FA is apical fluorescence; Δt is change in time; A is the surface area of the filter (in square centimeters); and VA is the volume of the basolateral chamber (in cubic centimeters). […]

The nature of series [8]: Solubility in aqueous environments. Type of series: physicochemical.
Series [9] has as its target PKCε (Homo sapiens (Human), UniProt Q02156). In words: Radio-labeled kinase assay at the Kmapp for ATP. In kind it is biochemical.
Description: as §1

Series [10] has as its target PKCα (Homo sapiens (Human), UniProt P17252). The experiment in a line: Radio-labeled kinase assay at the Kmapp for ATP. Type of series: biochemical.
Description: as §1

In series [11] the target is PKCδ (Homo sapiens (Human), UniProt Q05655). The experiment in a line: Radio-labeled kinase assay at the Kmapp for ATP. In kind it is biochemical.
Chain of PKCδ (Q05655 whole entry): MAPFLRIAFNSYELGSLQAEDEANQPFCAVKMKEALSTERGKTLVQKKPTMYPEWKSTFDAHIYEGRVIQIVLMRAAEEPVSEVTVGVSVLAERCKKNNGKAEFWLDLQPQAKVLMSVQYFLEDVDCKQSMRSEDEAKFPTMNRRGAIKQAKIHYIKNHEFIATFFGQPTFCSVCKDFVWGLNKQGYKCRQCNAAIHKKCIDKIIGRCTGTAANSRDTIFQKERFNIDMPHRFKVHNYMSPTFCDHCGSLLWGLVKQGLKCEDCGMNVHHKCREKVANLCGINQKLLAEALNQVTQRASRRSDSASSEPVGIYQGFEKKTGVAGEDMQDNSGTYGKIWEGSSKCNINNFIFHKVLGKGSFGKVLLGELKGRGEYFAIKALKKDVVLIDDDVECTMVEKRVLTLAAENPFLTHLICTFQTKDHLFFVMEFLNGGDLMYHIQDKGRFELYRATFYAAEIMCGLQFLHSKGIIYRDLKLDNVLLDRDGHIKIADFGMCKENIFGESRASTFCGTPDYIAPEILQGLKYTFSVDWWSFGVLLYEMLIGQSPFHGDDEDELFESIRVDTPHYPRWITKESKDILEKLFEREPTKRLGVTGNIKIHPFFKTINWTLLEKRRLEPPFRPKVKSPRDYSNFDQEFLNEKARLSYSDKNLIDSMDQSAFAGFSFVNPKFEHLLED
Description: as §1

The target of series [12] is PKCβ (Homo sapiens (Human), UniProt P05771). The experiment in a line: Radio-labeled kinase assay at the Kmapp for ATP. Type of series: biochemical.
Chain of PKCβ (P05771 whole entry): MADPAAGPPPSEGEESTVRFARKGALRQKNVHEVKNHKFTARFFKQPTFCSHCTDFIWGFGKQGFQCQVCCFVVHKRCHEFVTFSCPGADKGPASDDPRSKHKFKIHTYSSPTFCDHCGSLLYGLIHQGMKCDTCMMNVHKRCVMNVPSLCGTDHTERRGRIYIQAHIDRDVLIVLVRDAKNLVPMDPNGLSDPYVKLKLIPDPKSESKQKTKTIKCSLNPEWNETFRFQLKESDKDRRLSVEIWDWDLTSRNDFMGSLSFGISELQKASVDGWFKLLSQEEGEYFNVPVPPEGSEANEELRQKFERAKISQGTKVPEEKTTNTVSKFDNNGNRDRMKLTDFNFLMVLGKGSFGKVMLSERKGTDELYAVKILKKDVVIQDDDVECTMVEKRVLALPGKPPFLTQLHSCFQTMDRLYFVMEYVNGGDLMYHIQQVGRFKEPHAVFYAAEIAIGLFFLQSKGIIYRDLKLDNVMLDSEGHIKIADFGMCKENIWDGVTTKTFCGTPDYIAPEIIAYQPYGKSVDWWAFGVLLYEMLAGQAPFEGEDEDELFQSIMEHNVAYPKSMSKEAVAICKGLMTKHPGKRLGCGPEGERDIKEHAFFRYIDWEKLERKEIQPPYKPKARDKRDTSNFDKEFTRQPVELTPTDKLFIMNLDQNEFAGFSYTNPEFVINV
Description: as §1

Series [13] deals with AKT in endothelial cells. The experiment in a line: AKT, downstream mediator of PI3K signaling, in endothelial cells. In kind it is cell-based.
Series [14] relates to 20 AGC super-family kinases. In words: Screen of 20 AGC super-family kinases at 100 μM. In kind it is biochemical, human.
Series [15] deals with human retinal endothelial primary cells (HREC) monolayers. In words: Basal permeability of HREC monolayers. In kind it is cell-based. The protocol: as §2, §3
For series [16], the system named is retinal vasculature tight junction complex (occludin). The experiment in a line: Occludin immuno-labeling of retinal flat mounts after intra-vitreal VEGF. The following applies: intra-vitreal co-injection with VEGF.
Series [17] has as its system occludin and ZO-1 border staining in BREC. The experiment in a line: Tight junction protein localization after VEGF (immunocytochemistry, confocal). In kind it is cell-based, bovine. To be noted: 100 nM, 30 min before 50 ng/ml VEGF for 60 min. The protocol: VEGF treatment of retinal endothelial cells and diabetes leads to a breakdown of the tight junction complex and internalization of tight junction proteins occludin and ZO-1. The ability of the phenyl-thiophene derivatives to prevent the VEGF-induced reduction in tight junction border staining was examined. BREC were grown to confluence on coverslips and pretreated with 100 nM PKCζ-diCl for 30 minutes prior to treatment with 50 ng/ml VEGF for 60 minutes. Cells were fixed and stained with antibodies for ZO-1 or occludin and were visualized by confocal microscopy. VEGF decreased the border staining and continuity of ZO-1 and occludin labeling at the cell border. […] This effect on the tight junction correlated with the observed attenuation of VEGF-induced permeability.

The text below walks through data of US8889672B2, “Compounds, formulations, and methods of protein kinase C inhibition” (The Regents of The University of Michigan, priority 2011, dated 2014).

Structures are written as SMILES. Where two headings read alike, the source gives them in different places. Bounds are passed on as bounds.

Chain of aPKCζ (Q05513 whole entry): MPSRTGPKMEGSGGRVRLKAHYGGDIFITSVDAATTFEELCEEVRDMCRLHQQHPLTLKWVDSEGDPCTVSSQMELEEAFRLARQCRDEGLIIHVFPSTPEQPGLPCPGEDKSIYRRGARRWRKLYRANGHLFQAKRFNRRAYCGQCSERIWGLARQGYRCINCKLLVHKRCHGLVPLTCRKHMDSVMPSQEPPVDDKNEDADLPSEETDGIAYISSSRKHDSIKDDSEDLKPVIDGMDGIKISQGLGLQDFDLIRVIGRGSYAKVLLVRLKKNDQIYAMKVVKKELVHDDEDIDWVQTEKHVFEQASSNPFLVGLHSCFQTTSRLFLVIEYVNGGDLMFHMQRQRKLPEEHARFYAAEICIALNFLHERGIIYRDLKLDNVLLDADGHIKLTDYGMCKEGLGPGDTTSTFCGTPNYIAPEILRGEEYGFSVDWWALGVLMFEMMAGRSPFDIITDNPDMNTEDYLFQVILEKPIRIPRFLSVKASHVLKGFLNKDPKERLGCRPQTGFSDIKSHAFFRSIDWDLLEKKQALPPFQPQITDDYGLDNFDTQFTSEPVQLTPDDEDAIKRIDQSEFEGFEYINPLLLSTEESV
Chain of PKCε (Q02156 whole entry): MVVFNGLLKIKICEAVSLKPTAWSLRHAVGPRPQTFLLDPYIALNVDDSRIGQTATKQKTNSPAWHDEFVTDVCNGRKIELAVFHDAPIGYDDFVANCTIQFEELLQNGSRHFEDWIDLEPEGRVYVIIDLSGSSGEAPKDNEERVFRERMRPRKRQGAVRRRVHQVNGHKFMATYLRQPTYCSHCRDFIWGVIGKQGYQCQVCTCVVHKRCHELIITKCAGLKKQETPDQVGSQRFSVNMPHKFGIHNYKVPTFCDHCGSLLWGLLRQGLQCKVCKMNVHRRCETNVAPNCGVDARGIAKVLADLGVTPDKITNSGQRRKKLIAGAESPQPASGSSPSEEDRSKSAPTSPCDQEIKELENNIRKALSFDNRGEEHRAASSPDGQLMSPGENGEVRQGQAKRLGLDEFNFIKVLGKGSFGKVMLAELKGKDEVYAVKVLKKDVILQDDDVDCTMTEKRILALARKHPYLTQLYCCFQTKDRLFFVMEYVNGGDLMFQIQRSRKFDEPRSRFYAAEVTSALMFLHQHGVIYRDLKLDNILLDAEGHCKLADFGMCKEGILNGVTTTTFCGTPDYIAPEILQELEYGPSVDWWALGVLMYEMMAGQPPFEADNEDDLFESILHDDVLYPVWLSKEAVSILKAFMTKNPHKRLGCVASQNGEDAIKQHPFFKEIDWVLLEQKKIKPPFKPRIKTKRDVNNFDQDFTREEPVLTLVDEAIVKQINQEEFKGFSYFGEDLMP

With `COc1ccc(-c2csc(N)c2C(=O)N2CCOCC2)cc1OC` [Compound 194-074-005], half-maximal inhibition in series [1] (IC50) was put at 4 µM. In other words, the single-digit micromolar range.

The compound `CCNC(=O)c1c(-c2ccc(OC)c(OC)c2)csc1N` [Compound 194-074-008] gave an IC50 in series [1] of 4 µM. This lies in the single-digit micromolar range.

In series [1], `Nc1scc(-c2ccc(Cl)c(Cl)c2)c1C(=O)N1CCOCC1` [Compound 194-094-003] had an IC50 of 3 µM.

Take `CC(C)NC(=O)c1c(-c2ccc(Cl)c(Cl)c2)csc1N` [Compound 194-094-008]: the midpoint of inhibition in [1], the IC50, lay at 5 µM.

Compound `CCNC(=O)c1c(-c2ccc(Cl)c(Cl)c2)csc1N` [Compound 194-094-009] showed an IC50 in [1] of 5 µM.

With `COc1ccc(-c2csc(N)c2C#N)cc1OC` [Compound 227-076-001], in series [1], the IC50 is 7 µM.

In series [1], `COc1ccc(-c2csc(N)c2C(=O)OCc2ccccc2)cc1OC` [Compound 252-036-001] showed an IC50 of 6 µM. Besides, the EC50 in series [2] was determined as 0.001 µM.

As to `CCOC(=O)c1c(-c2ccc3c(c2)OCO3)csc1N` [Compound 268-020-002], in [3], the “TNF/VEGF-induction of BREC permeability” value is “significantly reduce” and the EC50 worked out at 0.02 µM. The compound also registered an IC50 in series [1] of 2 µM. Further, the EC50 in [2] was determined as 0.003 µM.

`COc1ccc(-c2csc(N)c2C(=O)OCc2ccccc2F)cc1OC` [Compound 317-052-001] had an IC50 in series [1] of 7 µM.

For the compound `COc1cccc(COC(=O)c2c(-c3ccc(OC)c(OC)c3)csc2N)c1` [Compound 317-052-004], the midpoint of inhibition in series [1], the IC50, lay at 5 µM. Also, in series [2], the EC50 turned out to be 0.002 µM.

In [1], `CCOC(=O)c1c(-c2ccc(OC)cc2F)csc1N` [Compound 317-054-001] came in with an IC50 of 4 µM. Also, the EC50 in [2] was found to be 0.01 µM.

In series [1], `CCOC(=O)c1c(-c2ccc(NC(C)=O)cc2)csc1N` [Compound 317-056-002] gave an IC50 of 6 µM.

Regarding `CCOC(=O)c1c(-c2ccc(N(C)C)cc2)csc1N` [Compound 317-080-001], the EC50 in [2] was found to be 0.001 µM.

In the case of `CCOC(=O)c1c(-c2ccc(N)cc2)csc1N` [Compound 317-094-001], half-maximal inhibition in series [1] (IC50) required 2 µM. Further, the EC50 in series [2] was 0.001 µM.

On to `COc1cccc(COC(=O)c2c(-c3ccc(C(N)=O)cc3)csc2N)c1` [Compound 317-120-001], for which half-maximal inhibition in series [1] (IC50) was put at 6 µM.

For `COc1ccc(-c2csc(N)c2C(=O)OC(C)C)cc1OC` [PKCl-diMeO], in [3], the “TNF/VEGF-induction of BREC permeability” value is “significantly reduce”. Also, the EC50 in [3] (Bos taurus) came out at 0.001 µM; in series [2] (Homo sapiens) it was 0.003 µM. In addition, in [4], the “specificity towards atypical PKC isoforms compared to the classical PKCs (α, β)” value is listed as 25-50 fold. In addition, in series [4], the “specificity towards atypical PKC isoforms compared to the novel class (δ,ε)” value is reported as 25 fold. In addition, in [5], the “cPKC activity in cell culture” value was “did not inhibit cPKC activity”. For the same compound, the Erk phosphorylation result in series [5] (endothelial cells) is on record as “unaffected”. In [6], the BREC viability result was “no evidence of cell death”. For the same compound, the VEGF-induced permeability result in series [7] is “dose-dependently blocked”. Also, the “solubility in aqueous environments” value in series [8] is listed as “improved solubility in aqueous environments”. For the same compound, the IC50 was greater than 100 µM in [9], 282 µM in [10], 147 µM in [11] and 124 µM in series [12]. In series [13], the AKT signaling result is on record as “unaffected”. In addition, the “inhibitory activity towards other AGC kinases” value in [14] is given as “limited inhibitory activity”.

Regarding `CC(C)OC(=O)c1c(-c2ccc(Cl)c(Cl)c2)csc1N` [PKCζl-diCl, isopropyl 2-amino-4-(3,4-dichlorophenyl)thiophene-3-carboxylate], in series [4], the “specificity towards atypical PKC isoforms compared to the classical PKCs (α, β)” value is 5-10 fold and the “specificity towards atypical PKC isoforms compared to the novel class (δ,ε)” value is listed as 10-20 fold. Besides, the VEGF-induced permeability entry in [7] is “dose-dependently blocked”. The “basal permeability of HREC monolayers” value in [15] is on record as “reducing permeability was also observed”. Also, the “occludin border staining in retinal vessels” value in series [16] was “occludin border staining was preserved”. In addition, the “VEGF-induced redistribution of occludin and ZO-1” value in series [17] is “blocked the VEGF-induced redistribution of occludin and ZO-1 proteins”.

As usually defined, the IC50 is the midpoint of a concentration-inhibition curve. Higher therefore signals a need for much substance.
